We go through 26 compounds from patent US20240391948A1, “NOVEL COMPOUND THAT INHIBITS TNF-ALPHA GENERATION AND INFLAMMASOME ACTIVITY AND PREPARATION METHOD THEREFOR” (SHAPERON INC., priority 2021, published 2024).

Type in all cases: cell-based
Assay [1] has as its system J774A.1 (Mouse BALB/c monocyte macrophage cell line) cells. Put plainly: LPS-induced TNF-α secretion inhibition in J774A.1 cells. As to conditions: J774.A1, 1 μM compound, graded compared to taurodeoxycholic acid (positive control), read-out: TNF-α production inhibition grade. The essentials:
(§1)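 Grades (A >100%, B 50–100%, C 20–50%, D <20%) express cytokine suppression by 1 μM compound relative to taurodeoxycholic acid. LPS-induced TNF-α and LPS+ATP-induced IL-1β secretion were measured in murine J774A.1 macrophage cells.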

Assay [2] relates to U937 cells (human monocytic cell line). The assay is described as follows: Pam2CSK4-induced TNF-α secretion inhibition in PMA-differentiated U937 cells. As to conditions: U-937, U937 cells differentiated with PMA, read-out: TNF-α production inhibition grade (IC50). The essentials: (§2)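 Inhibition is given as IC50 (μM) in A-D bands, using distinct thresholds for TNF-α and for IL-1β. Secretion followed Pam2CSK4 stimulation (TNF-α) or BzATP stimulation (IL-1β) of compound-pretreated, PMA-differentiated U937 macrophages.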

Assay [3] has the same test system. The assay is described as follows: BzATP-induced IL-1β secretion inhibition in PMA-differentiated U937 cells. As to conditions: U-937, U937 cells differentiated with PMA, read-out: IL-1β production inhibition grade (IC50). The essentials: as §2
For assay [4], the system named is J774A.1 (Mouse BALB/c monocyte macrophage cell line) cells. The assay is described as follows: LPS+ATP-induced IL-1β secretion inhibition in J774A.1 cells. As to conditions: J774.A1, 1 μM compound, graded compared to taurodeoxycholic acid (positive control), read-out: IL-1β production inhibition grade. The essentials: as §1

What is called inhibition is the drop in the measured response relative to a control, in per cent. The term IC50 denotes the concentration that gives 50% inhibition. Turning to `C[C@H](CCC(=O)N1CC(S(=O)(=O)O)C1)[C@H]1CC[C@H]2[C@@H]3CC[C@@H]4CC(=O)CC[C@]4(C)[C@H]3CC[C@]12C` [NC30012], the values for the inhibition at 1 µM in assay [1] and in assay [4] were below 20% and 20 to 50%, respectively. Besides, the 50% inhibitory concentration (IC50) is at least 2000 nM in assay [2] and at least 200 nM in assay [3].
Consider `C[C@H](CCC(=O)NC(C)(C)CS(=O)(=O)O)[C@H]1CC[C@H]2[C@@H]3CC[C@@H]4CC(=O)CC[C@]4(C)[C@H]3CC[C@]12C` [NC30013], for which the inhibition at 1 µM in assay [1] and in assay [4] was 50 to 100% in each case. Moreover, the 50% inhibitory concentration (IC50) in assay [2] was 500 to 1000 nM; in assay [3], at least 200 nM.
Take `C[C@H](CCC(=O)N[C@@H](Cc1ccccc1)CS(=O)(=O)O)[C@H]1CC[C@H]2[C@@H]3CC[C@@H]4CC(=O)CC[C@]4(C)[C@H]3CC[C@]12C` [NC30014]: the figures for the inhibition at 1 µM in assay [1] and in assay [4] were below 20% and 20 to 50%, respectively. The half-inhibitory concentration (IC50) in assay [2] was 500 to 1000 nM; in assay [3], at least 200 nM.
For `C[C@H](CCC(=O)N[C@H](Cc1ccccc1)CS(=O)(=O)O)[C@H]1CC[C@H]2[C@@H]3CC[C@@H]4CC(=O)CC[C@]4(C)[C@H]3CC[C@]12C` [NC30015], the inhibition at 1 µM in assay [1] and in assay [4] was below 20% throughout. Moreover, the concentration for half-maximal inhibition (IC50) in assay [2] was below 500 nM; in assay [3] it was at least 200 nM.
As for `CC(C)[C@@H](CS(=O)(=O)O)NC(=O)CC[C@@H](C)[C@H]1CC[C@H]2[C@@H]3CC[C@@H]4CC(=O)CC[C@]4(C)[C@H]3CC[C@]12C` [NC30016], the inhibition at 1 µM in assay [1] and in assay [4] was 20 to 50% in each case. Moreover, the figures for the IC50 in assay [2] and in assay [3] were below 500 nM and at least 200 nM, respectively.
On to `CC(C)[C@H](CS(=O)(=O)O)NC(=O)CC[C@@H](C)[C@H]1CC[C@H]2[C@@H]3CC[C@@H]4CC(=O)CC[C@]4(C)[C@H]3CC[C@]12C` [NC30017], for which the inhibition at 1 µM in assay [1] and in assay [4] was below 20% each time. The half-maximal inhibitory concentration (IC50) is at least 2000 nM in assay [2] and at least 200 nM in assay [3].
Consider `C[C@H](CCC(=O)N[C@H](CS(=O)(=O)O)c1ccccc1)[C@H]1CC[C@H]2[C@@H]3CC[C@@H]4CC(=O)CC[C@]4(C)[C@H]3CC[C@]12C` [NC30018], for which the inhibition at 1 µM in assay [1] and in assay [4] was below 20% in each case. The half-inhibitory concentration (IC50) is at least 2000 nM in assay [2] and at least 200 nM in assay [3].
For the compound `C[C@H](CCC(=O)N[C@@H](CS(=O)(=O)O)c1ccccc1)[C@H]1CC[C@H]2[C@@H]3CC[C@@H]4CC(=O)CC[C@]4(C)[C@H]3CC[C@]12C` [NC30019], the inhibition at 1 µM in assay [1] and in assay [4] was below 20% throughout. Also, the IC50 is 1000 to 2000 nM in assay [2] and at least 200 nM in assay [3].
Regarding `C[C@H](CCC(=O)N1CCC[C@@H]1CS(=O)(=O)O)[C@H]1CC[C@H]2[C@@H]3CC[C@@H]4CC(=O)CC[C@]4(C)[C@H]3CC[C@]12C` [NC30020], the inhibition at 1 µM is below 20% in assay [1] and 20 to 50% in assay [4]. Moreover, the IC50 is at least 2000 nM in assay [2] and at least 200 nM in assay [3].
Take `C[C@H](CCC(=O)NC[C@H](C)S(=O)(=O)O)[C@H]1CC[C@H]2[C@@H]3CC[C@@H]4CC(=O)CC[C@]4(C)[C@H]3CC[C@]12C` [NC30022]: the inhibition at 1 µM in assay [1] and in assay [4] was 20 to 50% each time. The values for the IC50 in assay [2] and in assay [3] were at least 2000 nM and at least 200 nM, respectively.
As to `C[C@H](CCC(=O)NC[C@@H](C)S(=O)(=O)O)[C@H]1CC[C@H]2[C@@H]3CC[C@@H]4CC(=O)CC[C@]4(C)[C@H]3CC[C@]12C` [NC30023], the results for the inhibition at 1 µM in assay [1] and in assay [4] were above 100% and 50 to 100%, respectively. The half-maximal inhibitory concentration (IC50) was at least 2000 nM in assay [2] and at least 200 nM in assay [3].
With `C[C@H](CCC(=O)N[C@H](CO)CS(=O)(=O)O)[C@H]1CC[C@H]2[C@@H]3CC[C@@H]4CC(=O)CC[C@]4(C)[C@H]3CC[C@]12C` [NC30025], the inhibition at 1 µM in assay [1] was above 100%; in assay [4], below 20%. Besides, the values for the IC50 in assay [2] and in assay [3] were 1000 to 2000 nM and at least 200 nM, respectively.
With `C[C@H](CCC(=O)N[C@H]1CCCC[C@H]1S(=O)(=O)O)[C@H]1CC[C@H]2[C@@H]3CC[C@@H]4CC(=O)CC[C@]4(C)[C@H]3CC[C@]12C` [NC30027], the inhibition at 1 µM in assay [1] and in assay [4] was above 100% in each case. For the same compound, the concentration for half-maximal inhibition (IC50) in assay [2] was 500 to 1000 nM; in assay [3], below 50 nM.
For the compound `C[C@H](CCC(=O)N[C@@H](C)CS(=O)(=O)O)[C@H]1CC[C@H]2[C@@H]3CC[C@@H]4CC(=O)CC[C@]4(C)[C@H]3CC[C@]12C` [NC30028], the inhibition at 1 µM in assay [1] and in assay [4] was below 20% each time. For the same compound, the half-maximal inhibitory concentration (IC50) in assay [2] was 500 to 1000 nM; in assay [3] it was at least 200 nM.
Regarding `C[C@H](CS(=O)(=O)O)NC(=O)CC[C@@H](C)[C@H]1CC[C@H]2[C@@H]3CC[C@@H]4CC(=O)CC[C@]4(C)[C@H]3CC[C@]12C` [NC30029], the results for the inhibition at 1 µM in assay [1] and in assay [4] were below 20% and 20 to 50%, respectively. For the same compound, the figures for the IC50 in assay [2] and in assay [3] were 500 to 1000 nM and at least 200 nM, respectively.
On to `CC(C)C[C@@H](CS(=O)(=O)O)NC(=O)CC[C@@H](C)[C@H]1CC[C@H]2[C@@H]3CC[C@@H]4CC(=O)CC[C@]4(C)[C@H]3CC[C@]12C` [NC30030], for which the inhibition at 1 µM in assay [1] is below 20%; in assay [4], 20 to 50%. Further, the IC50 in assay [2] was 500 to 1000 nM; in assay [3], at least 200 nM.
With `CC(C)C[C@H](CS(=O)(=O)O)NC(=O)CC[C@@H](C)[C@H]1CC[C@H]2[C@@H]3CC[C@@H]4CC(=O)CC[C@]4(C)[C@H]3CC[C@]12C` [NC30031], the inhibition at 1 µM is below 20% in assay [1] and 20 to 50% in assay [4]. The IC50 in assay [2] was 500 to 1000 nM; in assay [3] it was at least 200 nM.
On the same counts, the results for `C[C@H](CCC(=O)N1CC[C@H](S(=O)(=O)O)C1)[C@H]1CC[C@H]2[C@@H]3CC[C@@H]4CC(=O)CC[C@]4(C)[C@H]3CC[C@]12C` [NC30033] are below 20%, 20 to 50%, 500 to 1000 nM and 50 to 100 nM.
Take `C[C@H](CCC(=O)N1CC[C@@H](S(=O)(=O)O)C1)[C@H]1CC[C@H]2[C@@H]3CC[C@@H]4CC(=O)CC[C@]4(C)[C@H]3CC[C@]12C` [NC30034]: the inhibition at 1 µM in assay [1] and in assay [4] was below 20% in each case. Further, the 50% inhibitory concentration (IC50) was 500 to 1000 nM in assay [2] and at least 200 nM in assay [3].
With `C[C@H](CCC(=O)N(CCN(C)C)CCS(=O)(=O)O)[C@H]1CC[C@H]2[C@@H]3CC[C@@H]4CC(=O)CC[C@]4(C)[C@H]3CC[C@]12C` [NC30035], the inhibition at 1 µM in assay [1] and in assay [4] was above 100% each time. Besides, the results for the IC50 in assay [2] and in assay [3] were 500 to 1000 nM and below 50 nM, respectively.
On to `C[C@H](CCC(=O)N(CCS(=O)(=O)O)c1ccccc1)[C@H]1CC[C@H]2[C@@H]3CC[C@@H]4CC(=O)CC[C@]4(C)[C@H]3CC[C@]12C` [NC30037], for which the inhibition at 1 µM in assay [1] is 20 to 50%; in assay [4] it was above 100%. Besides, the IC50 in assay [2] is at least 2000 nM; in assay [3], below 50 nM.
Consider `CC[C@H]1[C@@H](O)[C@@H]2[C@H](CC[C@]3(C)[C@@H]([C@H](C)CCC(=O)NCCC(=O)O)CC[C@@H]23)[C@@]2(C)CC[C@@H](O)C[C@@H]12` [NC40002], for which the inhibition at 1 µM in assay [1] was below 20%; in assay [4], 20 to 50%. Further, the IC50 in assay [2] was at least 2000 nM; in assay [3], at least 200 nM.
In the case of `CC[C@H]1[C@@H](O)[C@@H]2[C@H](CC[C@]3(C)[C@@H]([C@H](C)CCC(=O)N(C)CCS(=O)(=O)O)CC[C@@H]23)[C@@]2(C)CC[C@@H](O)C[C@@H]12` [NC40004], the inhibition at 1 µM is below 20% in assay [1] and 50 to 100% in assay [4]. The half-inhibitory concentration (IC50) in assay [2] was at least 2000 nM; in assay [3], at least 200 nM.
For the compound `CC[C@H]1[C@@H](O)[C@@H]2[C@H](CC[C@]3(C)[C@@H]([C@H](C)CCC(=O)N(CCO)CCS(=O)(=O)O)CC[C@@H]23)[C@@]2(C)CC[C@@H](O)C[C@@H]12` [NC40006], the inhibition at 1 µM fell in the range of 20 to 50% in assay [1] and 50 to 100% in assay [4]. For the same compound, the half-inhibitory concentration (IC50) in assay [2] was 1000 to 2000 nM; in assay [3] it was at least 200 nM.
In the same order, the values of `CC[C@H]1[C@@H](O)[C@@H]2[C@H](CC[C@]3(C)[C@@H]([C@H](C)CCC(=O)N(CCS(=O)(=O)O)C(C)C)CC[C@@H]23)[C@@]2(C)CC[C@@H](O)C[C@@H]12` [NC40007] are below 20%, 50 to 100%, 1000 to 2000 nM and at least 200 nM.
In the same order, the values of `CC[C@H]1[C@@H](O)[C@@H]2[C@H](CC[C@]3(C)[C@@H]([C@H](C)CCC(=O)N(CCS(=O)(=O)O)C4CCOCC4)CC[C@@H]23)[C@@]2(C)CC[C@@H](O)C[C@@H]12` [NC40008] are above 100%, above 100%, below 500 nM and below 50 nM.
